# How the values were obtained:
# PTPN1 F191V = assay: Inhibitor sensitivity of point mutant PTPN1 F191V; type: biochemical, human; details: at 10 µM
# From the text: (§1) Figure 5 Structural basis for PTPRZ inhibition of NAZ2329. (A) An enlarged view of the X-ray structure of human PTPRZ1-D1 complexed with NAZ2329 (PDB ID: 5H08) (left), X-ray structure of the apo (open) form of PTPRZ1-D1 (PDB ID: 5AWX, ref. [6], middle) and a computer-modeled structure of the closed form of PTPRZ1-D1 complexed with a competitive inhibitor, SCB4380 (ref. [6], right), are shown. PTPRZ1-D1 is shown as a gray surface representation, in which Cys1933 at the active site and Val-1911 at the bottom of the allosteric pocket are indicated in red and yellow, respectively. Inhibitors are colored according to the atomic species in a stick figure representation as follows: oxygen (red), nitrogen (blue), sulfur (yellow), and carbon (green). The bottom figures show the conformation of the WPD loop (orange) as cartoon representations, in which Asp1901 and Cys1933 are indicated by orange and red spheres, respectively. Side chains of Arg1939 at the active site, Met1902 in the WPD loop, and Val-1911 at the bottom of the allosteric binding area are also shown in the stick representation. (B) LigPlot representation of the NAZ2329 interaction with PTPRZ1-D1. The predicted hydrogen bonds (broken black lines) and residues (red spoked arcs) involved in the hydrophobic interaction are shown. […]
# PTPRZ1 M1902F, M1902H = assay: Inhibitor sensitivity of point mutants PTPRZ1 M1902F and M1902H; type: biochemical, human; details: 10 µM, vs wild-type PTPRZ1
# From the text: as §1
structure (smiles),measurement,setting,value
CCOc1ccc(C(F)(F)F)cc1CSc1ccsc1C(=O)NS(=O)(=O)c1ccccc1 [NAZ2329],change in sensitivity of F191V mutant vs wild-type PTPN1 (more sensitive),PTPN1 F191V,~ 2 fold
same,effect of M1902F / M1902H substitution on sensitivity to inhibitor,"PTPRZ1 M1902F, M1902H",did not affect the sensitivity to the inhibitor
